# Publication PMC4552448 (Journal of medicinal chemistry, 2015)
# How the values were obtained:
# Type in all cases: cell-based
# HeLa cells = test: NKG2D and DNAM-1 ligand surface expression, IF and flow cytometry; conditions: data not shown
# [1] = system: RD rhabdomyosarcoma cells; test: Growth inhibition, MTT, RD; conditions: Rhabdomyosarcoma cell, 48 h, read-out: IC50 ± SD RD
# [2] = system: HepG2 hepatocellular carcinoma cells; test: Growth inhibition, MTT, HepG2; conditions: Homo sapiens, HepG2, 48 h, read-out: IC50 ± SD HepG2
# [3] = system: OVCAR-8 ovarian carcinoma cells; test: Growth inhibition of OVCAR-8 cells; conditions: Homo sapiens, OVCAR-8, 96 h, read-out: IC50 ± SD OVCAR-8
SMILES,induction of the NKG2D and DNAM-1 ligands (HeLa cells),IC50 [1] [nM],IC50 [2] [nM],IC50 [3] [nM]
"COc1cc(C(=O)c2ccn(-c3cccc(N)c3)c2)cc(OC)c1OC [(1-(3-aminophenyl)-1H-pyrrol-3-yl)(3,4,5-trimethoxyphenyl)-methanone]",unable to induce,–,–,–
"CC(=O)O[C@H]1C(=O)[C@@]2(C)[C@H]([C@H](OC(=O)c3ccccc3)[C@]3(O)C[C@H](OC(=O)[C@H](O)[C@@H](NC(=O)c4ccccc4)c4ccccc4)C(C)=C1C3(C)C)[C@]1(OC(C)=O)CO[C@@H]1C[C@@H]2O [PTX, Paclitaxel]",–,> 10000,–,–
"CC[C@]1(O)C[C@@H]2CN(CCc3c([nH]c4ccccc34)[C@@](C(=O)OC)(c3cc4c(cc3OC)N(C)[C@H]3[C@@](O)(C(=O)OC)[C@H](OC(C)=O)[C@]5(CC)C=CCN6CC[C@]43[C@@H]65)C2)C1 [VBL, vinblastine]",–,53 ± 2.5,81 ± 2.4,15 ± 7
